Results reported in patent publication US20250002489A1, “BIFUNCTIONAL COMPOUNDS FOR DEGRADING ITK VIA UBIQUITIN PROTEOSOME PATHWAY” (NURIX THERAPEUTICS, INC., priority 2021, published 2025).

Target: T1, ITK (Jurkat or Molt4 cells) (Homo sapiens, UniProt Q08881)
T1 construct: either human Jurkat (Clone E6-1 ATCC TIB-152) or Motl4 (ATCC CRL-1552), were plated; endogenous in cells; host or cells: Jurkat Clone E6-1 (ATCC TIB-152) or Molt4 (ATCC CRL-1552)
T1 sequence (Q08881 1-620): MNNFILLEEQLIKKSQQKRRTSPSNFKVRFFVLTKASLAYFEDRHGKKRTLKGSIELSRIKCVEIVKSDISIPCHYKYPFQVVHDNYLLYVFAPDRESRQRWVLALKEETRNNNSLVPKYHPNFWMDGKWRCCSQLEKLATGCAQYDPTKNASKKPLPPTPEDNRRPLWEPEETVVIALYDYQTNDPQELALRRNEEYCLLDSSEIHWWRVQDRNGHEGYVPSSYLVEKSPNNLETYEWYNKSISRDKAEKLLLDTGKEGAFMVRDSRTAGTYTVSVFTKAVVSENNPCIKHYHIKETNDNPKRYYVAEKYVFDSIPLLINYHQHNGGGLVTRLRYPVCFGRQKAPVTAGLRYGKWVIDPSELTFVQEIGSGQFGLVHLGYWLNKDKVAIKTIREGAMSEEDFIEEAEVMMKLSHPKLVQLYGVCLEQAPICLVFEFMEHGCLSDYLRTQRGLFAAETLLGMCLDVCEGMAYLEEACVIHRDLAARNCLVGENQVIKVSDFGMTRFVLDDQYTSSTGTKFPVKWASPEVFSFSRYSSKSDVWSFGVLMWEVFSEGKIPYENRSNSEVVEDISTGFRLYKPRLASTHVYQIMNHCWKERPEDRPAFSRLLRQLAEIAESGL
Test: ITK Degradation MSD (Meso Scale Discovery) Assay
Format: cell-based
Conditions: 4 or 6 hrs incubation; for DC50: best fit IC50 used as DC50
Method: Compound dilution series (7-point, 5-fold dilutions in DMSO, rows B—H with replicate in Column 1/2, 3/4, 5/6, 7, and 8 at 2000× the final required concentrations were prepared in 96-well plate (Falcon, cat. no. 353077). Row A, Column 1-8 were control DMSO. The 2000× solutions ranged from 2 mM to 128 nM (final assay concentration range 1 μM to […]). The 2000×solutions were added to cells in 10 μL volume, for a final DMSO concentration of 0.5% and final assay compound concentration of 1×. For the cells, either human Jurkat (Clone E6-1 ATCC TIB-152) or Motl4 (ATCC CRL-1552), were plated at 1×10^6 cells/mL, 100 μL/well ([…]) in complete RPMI (10% FBS, 1% L-glutamine). The cells were incubated with compounds 26-29 for 4 or 6 hrs at 32° C./6% CO2.
Following incubation, plates were centrifuged at 1200 rpm for 5 min. Supernatant was removed and 50 μL of cell lysis buffer (MSD Tris lysis buffer (R60TX), complete Mini EDTA-free protease inhibitor (Sigma 11836170001), Protease Inhibitor Cocktail (Sigma, P2714), Phosphatase Inhibitor Cocktail 2 and 3 (Sigma, P5726 and P0044), Benzonase (Sigma, E1014)) was added to each well. Plate was sealed and shook at 4° C. for 30 min. Plate was centrifuged and 45 μL was removed for plate assay.
Assay plate preparation: Meso Scale Discovery (MSD) multi-array sm spot 96-well plates (Goat anti-Rabbit L^45-RA), were blocked with 3% BSA blocking buffer (3% Bovine Serum Albumin (Sigma A3059)+TBS 0.2% Tween-20) for one hour with gentle rocking at room temperature. Plate was then washed with 200 μL of 1×TBST (TBS 0.2% Tween-20) three times. After the last wash, all liquid was removed and 50 μL per well of capture antibody (abcam ITK Y402-ab32507) was added to plate at a 1:1000 dilution in blocking buffer (see above). Plate was sealed and rocked at room temperature for 2 hrs. Plate was then washed three times with 200 μL of 1×TBST. After the last wash, all liquid was removed and 45 μL of cell lysate (from above) was added to plate. Plate was sealed and rocked overnight at 4° C. The next day, cell lysates were removed, and assay plate was washed three times with 200 μL of 1×TBST. After the last wash, liquid was removed and detection antibody (CST ITK (2F12) #2380) was added at 50 μL per well at a dilution of 1:1000 in blocking buffer. Plate was sealed and rocked at room temperature for 2 hrs. Plate was washed three times with 200 μL of 1×TBST. After the last wash, all liquid was removed, MSD […] sulfo tag (R32AC-1) was diluted to 1:1000 in blocking buffer. 50 μL was added to each well on the plate. Plate was sealed and incubated at room temperature for one hour. Plate was washed three times with 200 μL of 1×TBST. After last wash, all liquid was removed and 150 μL of 1×MSD Read Buffer T (R92PC) was then added to each well for ECL read out.
For reading ECL signal, plate was read on a Meso Scale Discovery (MSD) MESO Sector S 600 plate reader. Percent ITK was then calculated as described below.
Percent ITK remaining per sample was calculated as follows: […]
Using Graphpad Prism, % ITK remaining values were plotted as a function of compound concentration. To determine DC50 and Dmax values, resulting curves were fit to the Prism curve-fitting equation “log(inhibitor) vs response−Variable slope (four parameters)” (reported best fit value IC50 used as DC50).

| SMILES | Dmax [%] | DC50 [nM] |
| --- | --- | --- |
| Cc1ncsc1-c1ccc([C@H](C)NC(=O)[C@@H]2C[C@@H](O)CN2C(=O)[C@@H](NC(=O)CC2CCN(c3ccc(C(=O)N4CC([C@@H](c5ccccc5)n5cc(NC(=O)c6n[nH]c7c6C[C@@H]6C(F)(F)[C@]6(C)C7)cn5)C4)nc3)CC2)C(C)(C)C)cc1 [Compound 22, (4aS,5aR)-5,5-difluoro-N-(1-((S)-(1-(5-(4-(2-(((S)-1-((2S,4R)-4-hydroxy-2-(((S)-1-(4-(4-methylthiazol-5-yl)phenyl)ethyl)carbamoyl)pyrrolidin-1-yl)-3,3-dimethyl-1-oxobutan-2-yl)amino)-2-oxoethyl)piperidin-1-yl)picolinoyl)azetidin-3-yl)(phenyl)methyl)-1H-pyrazol-4-yl)-5a-methyl-1,4,4a,5,5a,6-hexahydrocyclopropa[f]indazole-3-carboxamide] | 88 | 3.78 |
| Cc1ncsc1-c1ccc([C@H](C)NC(=O)[C@@H]2C[C@@H](O)CN2C(=O)[C@@H](NC(=O)c2ccc(N3CCC(CC(=O)N4CC([C@@H](c5ccccc5)n5cc(NC(=O)c6n[nH]c7c6C[C@@H]6C(F)(F)[C@]6(C)C7)cn5)C4)CC3)cn2)C(C)(C)C)cc1 [Compound 23, (4aS,5aR)-5,5-difluoro-N-(1-((S)-(1-(2-(1-(6-(((S)-1-((2S,4R)-4-hydroxy-2-(((S)-1-(4-(4-methylthiazol-5-yl)phenyl)ethyl)carbamoyl)pyrrolidin-1-yl)-3,3-dimethyl-1-oxobutan-2-yl)carbamoyl)pyridin-3-yl)piperidin-4-yl)acetyl)azetidin-3-yl)(phenyl)methyl)-1H-pyrazol-4-yl)-5a-methyl-1,4,4a,5,5a,6-hexahydrocyclopropa[f]indazole-3-carboxamide] | 91 | 13.3 |
| Cc1ncsc1-c1ccc([C@H](C)NC(=O)[C@@H]2C[C@@H](O)CN2C(=O)[C@@H](NC(=O)CN2CCN(CC(=O)N3CC([C@@H](c4ccccc4)n4cc(NC(=O)c5n[nH]c6c5C[C@@H]5C(F)(F)[C@]5(C)C6)cn4)C3)CC2)C(C)(C)C)cc1 [Compound 24, (4aS,5aR)-5,5-difluoro-N-(1-((S)-(1-(2-(4-(2-(((S)-1-((2S,4R)-4-hydroxy-2-(((S)-1-(4-(4-methylthiazol-5-yl)phenyl)ethyl)carbamoyl)pyrrolidin-1-yl)-3,3-dimethyl-1-oxobutan-2-yl)amino)-2-oxoethyl)piperazin-1-yl)acetyl)azetidin-3-yl)(phenyl)methyl)-1H-pyrazol-4-yl)-5a-methyl-1,4,4a,5,5a,6-hexahydrocyclopropa[f]indazole-3-carboxamide] | 93 | 92.7 |
| Cc1ncsc1-c1ccc(CNC(=O)[C@@H]2C[C@@H](O)CN2C(=O)[C@@H](NC(=O)C2(F)CC2)C(C)(C)C)c(OCCCCC(=O)N2CC([C@@H](c3ccccc3)n3cc(NC(=O)c4n[nH]c5c4C[C@@H]4C(F)(F)[C@]4(C)C5)cn3)C2)c1 [Compound 34, (4aS,5aR)-5,5-difluoro-N-(1-((S)-(1-(5-(2-(((2S,4R)-1-((S)-2-(1-fluorocyclopropane-1-carboxamido)-3,3-dimethylbutanoyl)-4-hydroxypyrrolidine-2-carboxamido)methyl)-5-(4-methylthiazol-5-yl)phenoxy)pentanoyl)azetidin-3-yl)(phenyl)methyl)-1H-pyrazol-4-yl)-5a-methyl-1,4,4a,5,5a,6-hexahydrocyclopropa[f]indazole-3-carboxamide] | 94 | 10.8 |

The remaining molecules from weak to strong by DC50, led by results:

| Dmax [%] | DC50 [nM] | SMILES |
| --- | --- | --- |
| 86.3 | 38.8 | Cc1ncsc1-c1ccc([C@H](C)NC(=O)[C@@H]2C[C@@H](O)CN2C(=O)[C@@H](NC(=O)CCOCCOCCC(=O)N2CC([C@@H](c3ccccc3)n3cc(NC(=O)c4n[nH]c5c4C[C@@H]4C(F)(F)[C@]4(C)C5)cn3)C2)C(C)(C)C)cc1 [Compound 30, (4aS,5aR)-5,5-difluoro-N-(1-((S)-(1-(3-(2-(3-(((S)-1-((2S,4R)-4-hydroxy-2-(((S)-1-(4-(4-methylthiazol-5-yl)phenyl)ethyl)carbamoyl)pyrrolidin-1-yl)-3,3-dimethyl-1-oxobutan-2-yl)amino)-3-oxopropoxy)ethoxy)propanoyl)azetidin-3-yl)(phenyl)methyl)-1H-pyrazol-4-yl)-5a-methyl-1,4,4a,5,5a,6-hexahydrocyclopropa[f]indazole-3-carboxamide] |
| 88.8 | 30.1 | Cc1ncsc1-c1ccc([C@H](C)NC(=O)[C@@H]2C[C@@H](O)CN2C(=O)[C@@H](NC(=O)c2ccc(N3CCC(C(=O)N4CC([C@@H](c5ccccc5)n5cc(NC(=O)c6n[nH]c7c6C[C@@H]6C(F)(F)[C@]6(C)C7)cn5)C4)CC3)cn2)C(C)(C)C)cc1 [Compound 31, (4aS,5aR)-5,5-difluoro-N-(1-((S)-(1-(1-(6-(((S)-1-((2S,4R)-4-hydroxy-2-(((S)-1-(4-(4-methylthiazol-5-yl)phenyl)ethyl)carbamoyl)pyrrolidin-1-yl)-3,3-dimethyl-1-oxobutan-2-yl)carbamoyl)pyridin-3-yl)piperidine-4-carbonyl)azetidin-3-yl)(phenyl)methyl)-1H-pyrazol-4-yl)-5a-methyl-1,4,4a,5,5a,6-hexahydrocyclopropa[f]indazole-3-carboxamide] |
| 94.5 | 27.9 | Cc1ncsc1-c1ccc(CNC(=O)[C@@H]2C[C@@H](O)CN2C(=O)[C@@H](NC(=O)C2(F)CC2)C(C)(C)C)c(OCCCC(=O)N2CC([C@@H](c3ccccc3)n3cc(NC(=O)c4n[nH]c5c4C[C@@H]4C(F)(F)[C@]4(C)C5)cn3)C2)c1 [Compound 33, (4aS,5aR)-5,5-difluoro-N-(1-((S)-(1-(4-(2-(((2S,4R)-1-((S)-2-(1-fluorocyclopropane-1-carboxamido)-3,3-dimethylbutanoyl)-4-hydroxypyrrolidine-2-carboxamido)methyl)-5-(4-methylthiazol-5-yl)phenoxy)butanoyl)azetidin-3-yl)(phenyl)methyl)-1H-pyrazol-4-yl)-5a-methyl-1,4,4a,5,5a,6-hexahydrocyclopropa[f]indazole-3-carboxamide] |
| 63.4 | 20.2 | Cc1ncsc1-c1ccc(CNC(=O)[C@@H]2C[C@@H](O)CN2C(=O)[C@@H](NC(=O)C2(F)CC2)C(C)(C)C)c(OCC(=O)N2CC([C@@H](c3ccccc3)n3cc(NC(=O)c4n[nH]c5c4C[C@@H]4C(F)(F)[C@]4(C)C5)cn3)C2)c1 [Compound 32, (4aS,5aR)-5,5-difluoro-N-(1-((S)-(1-(2-(2-(((2S,4R)-1-((S)-2-(1-fluorocyclopropane-1-carboxamido)-3,3-dimethylbutanoyl)-4-hydroxypyrrolidine-2-carboxamido)methyl)-5-(4-methylthiazol-5-yl)phenoxy)acetyl)azetidin-3-yl)(phenyl)methyl)-1H-pyrazol-4-yl)-5a-methyl-1,4,4a,5,5a,6-hexahydrocyclopropa[f]indazole-3-carboxamide] |
